In PMC7235042, “Venturicidin A, A Membrane-active Natural Product Inhibitor of ATP synthase Potentiates Aminoglycoside Antibiotics” (Scientific Reports, 2020):

Target: T1, AAC(6′)-Ie-APH(2′′)-Ia (Staphylococcus aureus, UniProt P0A0C1)
T1 construct: gene aacA-aphD; purified bifunctional enzyme (AAC and APH domains)
Assay: absorbance at […] nm, DTNB detection of released CoA-SH
Format: biochemical
Settings: AAC activity; co-substrate gentamicin 112 µg/mL

T1 sequence (P0A0C1 whole entry, the tested form may be a part): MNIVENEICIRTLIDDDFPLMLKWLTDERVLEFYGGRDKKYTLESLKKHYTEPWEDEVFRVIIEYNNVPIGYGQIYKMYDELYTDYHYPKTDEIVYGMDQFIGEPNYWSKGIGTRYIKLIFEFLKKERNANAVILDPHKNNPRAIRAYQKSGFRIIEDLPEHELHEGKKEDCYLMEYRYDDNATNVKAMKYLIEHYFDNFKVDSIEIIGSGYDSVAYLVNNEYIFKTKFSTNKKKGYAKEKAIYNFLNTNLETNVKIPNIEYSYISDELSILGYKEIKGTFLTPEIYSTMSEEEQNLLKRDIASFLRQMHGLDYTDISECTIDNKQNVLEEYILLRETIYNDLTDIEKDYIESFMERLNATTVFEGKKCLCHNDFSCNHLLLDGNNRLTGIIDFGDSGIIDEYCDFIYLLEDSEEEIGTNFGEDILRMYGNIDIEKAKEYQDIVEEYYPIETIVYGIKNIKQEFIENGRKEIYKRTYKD

CC(=O)SCCNC(=O)CCNC(=O)[C@H](O)C(C)(C)COP(=O)(O)OP(=O)(O)OC[C@H]1O[C@@H](n2cnc3c(N)ncnc32)[C@H](O)[C@@H]1OP(=O)(O)O [acetyl CoA]
absorbance at 412 nm, DTNB detection of released CoA-SH: CoA–SH that is derived from acetyl CoA after antibiotic acetylation
